The record followed here is patent publication US20260356817A1, “AMINOPYRIMIDINE AND AMINOTRIAZINE DERIVATIVES AS MYC PROTEIN MODULATORS” (Sanford Burnham Prebys Medical Discovery Institute, priority 2022, published 2026).

Read-outs that look alike come from different tables or passages of the source.

The test concerns Myc. Briefly: Myc inhibition assay: Myc expression per cell by anti-Myc immunofluorescence, high-content imaging. The following applies: medulloblastoma PDX cells, 4 h. In kind it is cell-based, human (patient-derived medulloblastoma xenograft cells). Put shortly:
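IC50 comes from high-content imaging of per-cell Myc immunostaining (DAPI-labelled nuclei) after 4 h compound exposure. Cells were freshly dissociated medulloblastoma PDX tumours, never passaged in vitro, grown in NSG mouse cerebellum, plated serum-free and recovered overnight before treatment.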
In general terms: Xenograft models place foreign cells or tissue in a host animal.

[1] abbreviates: Table 1, read-out: IC50 (Myc inhibition).
The mark [2] stands for this setting: Table 2, read-out: MYC Inhibition IC50.

`FC(F)(F)c1cccc(Nc2nccc(-c3ccc4cn[nH]c4c3)n2)c1` [Compound 164, 4-(1H-indazol-6-yl)-N-(3-(trifluoromethyl)phenyl)pyrimidin-2-amine]: the IC50 was in the range of 1 to 10 µM under setting [1] and 1 to 10 µM under setting [2].
For `Fc1cccc(Nc2nccc(-c3ccc4[nH]ncc4c3)n2)c1` [Compound 165, N-(3-Fluorophenyl)-4-(1H-indazol-5-yl)pyrimidin-2-amine], the IC50 is, setting by setting: under setting [1], 1 to 10 µM; under setting [2], 1 to 10 µM.
Turning to `COc1cc(-c2ccnc(Nc3cc(C(F)(F)F)ccn3)n2)ccn1` [Compound 166, 4-(2-methoxypyridin-4-yl)-N-(4-(trifluoromethyl)pyridin-2-yl)pyrimidin-2-amine], the IC50 by setting is: under setting [1], 10 to 100 µM; under setting [2], 10 to 100 µM.
On to `Oc1cc(-c2ccnc(Nc3cccc(C(F)(F)F)n3)n2)ccn1` [Compound 167, 4-(2-((6-(trifluoromethyl)pyridin-2-yl)amino)pyrimidin-4-yl)pyridin-2-ol], for which the IC50 under setting [1] was in the range of 10 to 100 µM and the IC50 under setting [2] was 10 to 100 µM.
As to `COc1cc(-c2ccnc(Nc3cccc(C(F)(F)F)n3)n2)ccn1` [Compound 168, 4-(2-methoxypyridin-4-yl)-N-(6-(trifluoromethyl)pyridin-2-yl)pyrimidin-2-amine], the IC50 is, setting by setting: under setting [1], 10 to 100 µM; under setting [2], 10 to 100 µM.
Turning to `Fc1cccc(Nc2nccc(-c3cnc4[nH]ccc4c3)n2)c1` [Compound 169, N-(3-fluorophenyl)-4-(1H-pyrrolo[2,3-b]pyridin-5-yl)pyrimidin-2-amine], the IC50 lay within 10 to 100 µM under setting [1] and 10 to 100 µM under setting [2].
Turning to `Oc1ccc(-c2ccnc(Nc3cc(F)ccn3)n2)nc1` [Compound 170, 6-(2-((4-fluoropyridin-2-yl)amino)pyrimidin-4-yl)pyridin-3-ol], the IC50 fell in the range of 1 to 10 µM under setting [1] and 1 to 10 µM under setting [2].
Regarding `FC(F)(F)c1cccc(Nc2nccc(-c3ccc4cc[nH]c4c3)n2)c1` [Compound 172, 4-(1H-indol-6-yl)-N-(3-(trifluoromethyl)phenyl)pyrimidin-2-amine], the IC50 is, setting by setting: under setting [1], 1 to 10 µM; under setting [2], 1 to 10 µM.
On to `Oc1cccc(-c2ccnc(Nc3cccc(C(F)(F)F)c3)n2)c1` [Compound 173, 3-(2-((3-(trifluoromethyl)phenyl)amino)pyrimidin-4-yl)phenol], for which the IC50 reads like this: under setting [1], 10 to 100 µM; under setting [2], 10 to 100 µM.
Turning to `COc1ccc(-c2ccnc(Nc3cccc(F)c3)n2)nc1` [Compound 174, N-(3-fluorophenyl)-4-(5-methoxypyridin-2-yl)pyrimidin-2-amine], the IC50 reads like this: under setting [1], 10 to 100 µM; under setting [2], 10 to 100 µM.
`Oc1cc(-c2ccnc(Nc3ccncn3)n2)ccn1` [Compound 175, 4-(2-(pyrimidin-4-ylamino)pyrimidin-4-yl)pyridin-2-ol]: the IC50 is, setting by setting: under setting [1], 10 to 100 µM; under setting [2], 10 to 100 µM.
For `COc1ccc(-c2ccnc(Nc3cccc(F)c3)n2)s1` [Compound 176, N-(3-fluorophenyl)-4-(5-methoxythiophen-2-yl)pyrimidin-2-amine], the IC50 by setting is: under setting [1], 1 to 10 µM; under setting [2], 1 to 10 µM.
Turning to `COc1cc(-c2ccnc(Nc3ccncn3)n2)ccn1` [Compound 177, 4-(2-methoxypyridin-4-yl)-N-(pyrimidin-4-yl)pyrimidin-2-amine], the IC50 lay in the range of 10 to 100 µM under setting [1] and 10 to 100 µM under setting [2].
`Oc1cc(-c2ccnc(Nc3cncnc3)n2)ccn1` [Compound 178, 4-(2-(pyrimidin-5-ylamino)pyrimidin-4-yl)pyridin-2-ol]: the IC50 is, setting by setting: under setting [1], 10 to 100 µM; under setting [2], 10 to 100 µM.
With `COc1cc(-c2ccnc(Nc3cncnc3)n2)ccn1` [Compound 179, 4-(2-methoxypyridin-4-yl)-N-(pyrimidin-5-yl)pyrimidin-2-amine], the IC50 lay in the range of 10 to 100 µM under setting [1] and 10 to 100 µM under setting [2].
As to `COc1ncc(-c2ccnc(Nc3cccc(F)c3)n2)s1` [Compound 180, N-(3-fluorophenyl)-4-(2-methoxythiazol-5-yl)pyrimidin-2-amine], the IC50 was 1 to 10 µM under setting [1] and 1 to 10 µM under setting [2].
Turning to `Oc1ncc(-c2ccnc(Nc3cccc(F)c3)n2)s1` [Compound 181, 5-(2-((3-fluorophenyl)amino)pyrimidin-4-yl)thiazol-2-ol], the IC50 runs as follows: under setting [1], 0.2 to 1 µM; under setting [2], 0.2 to 1 µM.
Turning to `Oc1ccnc(-c2ccnc(Nc3cccc(F)c3)n2)c1` [Compound 182, 2-(2-((3-fluorophenyl)amino)pyrimidin-4-yl)pyridin-4-ol], the IC50 under setting [1] was in the range of 1 to 10 µM and the IC50 under setting [2] was 1 to 10 µM.
Turning to `Oc1ccnc(-c2ccnc(Nc3ccccc3)n2)c1` [Compound 183, 2-(2-(phenylamino)pyrimidin-4-yl)pyridin-4-ol], the IC50 under setting [1] was 1 to 10 µM and the IC50 under setting [2] is 1 to 10 µM.
Regarding `Oc1cc(-c2ccnc(Nc3ncccn3)n2)ccn1` [Compound 184, 4-(2-(pyrimidin-2-ylamino)pyrimidin-4-yl)pyridin-2-ol], the IC50 by setting is: under setting [1], 10 to 100 µM; under setting [2], 10 to 100 µM.
In the case of `COC(=O)c1cccc(Nc2nccc(-c3ccnc(O)c3)n2)c1` [Compound 185, methyl 3-((4-(2-hydroxypyridin-4-yl)pyrimidin-2-yl)amino)benzoate], the IC50 under setting [1] was in the range of 1 to 10 µM and the IC50 under setting [2] lay within 1 to 10 µM.
With `Oc1cc(-c2ccnc(Nc3ccccn3)n2)ccn1` [Compound 186, 4-(2-(pyridin-2-ylamino)pyrimidin-4-yl)pyridin-2-ol], the IC50 under setting [1] is 10 to 100 µM and the IC50 under setting [2] was in the range of 10 to 100 µM.
Take `COc1cc(-c2ccnc(Nc3ccccn3)n2)ccn1` [Compound 187, 4-(2-methoxypyridin-4-yl)-N-(pyridin-2-yl)pyrimidin-2-amine]: the IC50 by setting is: under setting [1], 10 to 100 µM; under setting [2], 10 to 100 µM.
As to `Oc1cc(-c2ccnc(Nc3cccnc3)n2)ccn1` [Compound 188, 4-(2-(pyridin-3-ylamino)pyrimidin-4-yl)pyridin-2-ol], the IC50 lay within 1 to 10 µM under setting [1] and 1 to 10 µM under setting [2].
For the molecule `COc1cc(-c2ccnc(Nc3cccnc3)n2)ccn1` [Compound 189, 4-(2-methoxypyridin-4-yl)-N-(pyridin-3-yl)pyrimidin-2-amine], the IC50 under setting [1] lay in the range of 1 to 10 µM and the IC50 under setting [2] lay within 1 to 10 µM.
On to `Oc1cc(-c2ccnc(Nc3ccncc3)n2)ccn1` [Compound 190, 4-(2-(pyridin-4-ylamino)pyrimidin-4-yl)pyridin-2-ol], for which the IC50 is, setting by setting: under setting [1], 1 to 10 µM; under setting [2], 1 to 10 µM.
Regarding `COc1cccc(Nc2nccc(-c3ccnc(O)c3)n2)c1` [Compound 191, 4-(2-((3-methoxyphenyl)amino)pyrimidin-4-yl)pyridin-2-ol], the IC50 is, setting by setting: under setting [1], 1 to 10 µM; under setting [2], 1 to 10 µM.
For `COc1cccc(Nc2nccc(-c3ccnc(OC)c3)n2)c1` [Compound 192, N-(3-methoxyphenyl)-4-(2-methoxypyridin-4-yl)pyrimidin-2-amine], the IC50 under setting [1] was in the range of 1 to 10 µM and the IC50 under setting [2] lay in the range of 1 to 10 µM.
With `COc1ccnc(-c2ccnc(Nc3cccc(F)c3)n2)c1` [Compound 193, N-(3-fluorophenyl)-4-(4-methoxypyridin-2-yl)pyrimidin-2-amine], the IC50 under setting [1] lay in the range of 10 to 100 µM and the IC50 under setting [2] lay in the range of 10 to 100 µM.
For `Oc1ccc(-c2ccnc(Nc3cccc(F)c3)n2)cc1` [Compound 194, 4-(2-((3-fluorophenyl)amino)pyrimidin-4-yl)phenol], the IC50 by setting is: under setting [1], 1 to 10 µM; under setting [2], 1 to 10 µM.
Take `COc1cc(-c2ccnc(Nc3ncccn3)n2)ccn1` [Compound 195, 4-(2-methoxypyridin-4-yl)-N-(pyrimidin-2-yl)pyrimidin-2-amine]: the IC50 runs as follows: under setting [1], 10 to 100 µM; under setting [2], 10 to 100 µM.
Turning to `O=C(O)c1cccc(Nc2nccc(-c3ccnc(O)c3)n2)c1` [Compound 196, 3-((4-(2-hydroxypyridin-4-yl)pyrimidin-2-yl)amino)benzoic acid], the IC50 reads like this: under setting [1], 10 to 100 µM; under setting [2], 10 to 100 µM.
Regarding `COc1cc(-c2ccnc(Nc3ccncc3)n2)ccn1` [Compound 197, 4-(2-methoxypyridin-4-yl)-N-(pyridin-4-yl)pyrimidin-2-amine], the IC50 under setting [1] was in the range of 1 to 10 µM and the IC50 under setting [2] lay in the range of 1 to 10 µM.
Take `COc1cc(-c2ccnc(Nc3cccc(C(N)=O)c3)n2)ccn1` [Compound 198, 3-((4-(2-methoxypyridin-4-yl)pyrimidin-2-yl)amino)benzamide]: the IC50 under setting [1] lay in the range of 1 to 10 µM and the IC50 under setting [2] fell in the range of 1 to 10 µM.
As for `Fc1cccc(Nc2nccc(-c3ccc4[nH]cnc4c3)n2)c1` [Compound 199, 4-(1H-benzo[d]imidazol-5-yl)-N-(3-fluorophenyl)pyrimidin-2-amine], the IC50 reads like this: under setting [1], less than 0.2 µM; under setting [2], less than 0.2 µM.
For the molecule `Oc1cncc(-c2ccnc(Nc3cccc(F)c3)n2)c1` [Compound 200, 5-(2-((3-fluorophenyl)amino)pyrimidin-4-yl)pyridin-3-ol], the IC50 under setting [1] fell in the range of 1 to 10 µM and the IC50 under setting [2] lay in the range of 1 to 10 µM.
Regarding `Oc1cncc(-c2ccnc(Nc3cccc(C(F)(F)F)c3)n2)c1` [Compound 201, 5-(2-((3-(trifluoromethyl)phenyl)amino)pyrimidin-4-yl)pyridin-3-ol], the IC50 was 1 to 10 µM under setting [1] and 1 to 10 µM under setting [2].
On to `Fc1cccc(Nc2nccc(-c3ccc4[nH]ccc4c3)n2)c1` [Compound 202, N-(3-fluorophenyl)-4-(1H-indol-5-yl)pyrimidin-2-amine], for which the IC50 under setting [1] lay in the range of 10 to 100 µM and the IC50 under setting [2] lay within 10 to 100 µM.
Take `COc1cncc(-c2ccnc(Nc3cccc(F)c3)n2)c1` [Compound 203, N-(3-fluorophenyl)-4-(5-methoxypyridin-3-yl)pyrimidin-2-amine]: the IC50 is, setting by setting: under setting [1], 0.2 to 1 µM; under setting [2], 0.2 to 1 µM.
Consider `COc1cncc(-c2ccnc(Nc3cccc(C(F)(F)F)c3)n2)c1` [Compound 204, 4-(5-methoxypyridin-3-yl)-N-(3-(trifluoromethyl)phenyl)pyrimidin-2-amine], for which the IC50 runs as follows: under setting [1], 0.2 to 1 µM; under setting [2], 0.2 to 1 µM.

As usually defined, the IC50 is the point on the concentration scale where inhibition reaches its midpoint.
